Measurements as given in patent US20250340532A1, “HETEROCYCLIC COMPOUND CCR4 INHIBITOR AND USER THEREOF” (Xizang Haisco Pharmaceutical Co., Ltd., priority 2022, published 2025).

How the values were obtained:
CCR4 = target: T1, CCR4 (Homo sapiens, UniProt P51679); test: Calcium flow detected by FLIPR; assay type: cell-based; settings: CCR4/HEK293 cells, agonist CCL17, Fluo-4 calcium signal
T1 construct: expressed in transfected cells; host or cells: HEK293
T1 sequence (P51679 1-360): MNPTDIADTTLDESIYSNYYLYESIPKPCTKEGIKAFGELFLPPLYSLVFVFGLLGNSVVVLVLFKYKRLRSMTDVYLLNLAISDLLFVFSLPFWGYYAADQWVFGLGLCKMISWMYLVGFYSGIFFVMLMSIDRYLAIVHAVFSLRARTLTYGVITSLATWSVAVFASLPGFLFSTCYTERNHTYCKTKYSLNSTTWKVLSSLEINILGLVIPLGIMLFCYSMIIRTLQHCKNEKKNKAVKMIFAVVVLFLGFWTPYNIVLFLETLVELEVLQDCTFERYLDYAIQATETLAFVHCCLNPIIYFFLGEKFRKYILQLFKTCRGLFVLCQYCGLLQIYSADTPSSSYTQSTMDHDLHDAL
Procedure: CCR4/HEK293 cells were added to a 384-well cell culture plate (Greiner #781946) at a rate of 20 μL/well (20,000 cells/well) and incubated overnight in a 37° C., 5% CO2 incubator (Incubator, Thermo). On the second day, the 384-well cell culture plate was taken out of the incubator and the culture medium was removed; Then, 20 μL of detection buffer and 20 μL of 2X Fluo-4 Direct™ (Invitrogen, Cat #F10471) were added. Then, compounds were added at 10 μL/well (compounds were subjected to 4-fold serial dilution, and the highest detection concentration was 10 μM), and the cells were incubated in a 37° C., 5% CO2 incubator for 50 min, and then incubated at room temperature for 10 min. The 384-well culture plate was placed in FLIPR ([…]), 10 μL of 6X agonist CCL17 was added by using an automatic loader, and the fluorescence signal was read immediately. The mean and standard error (Mean±SEM) were statistically analyzed using Graphpad Prism software, and the IC50 value was calculated.
The experimental results are shown in Table 3, where A represents IC50<100 nm; B represents 100 nM≤IC50<500 nM, and C represents 500 nM≤IC50.

[1] = Pharmacokinetic test in rats; assay type: in vivo, SD rats; settings: for AUC / clearance / Vd: male, SD, rat, plasma; for Vd: read-out: Vdss
Procedure: 1.1 Experimental animals: male SD rats, about 220 g, 6-8 weeks old, 6 rats/compound. Purchased from Chengdu Ddossy Experimental Animals Co., Ltd.
1.2 Experimental design: on the day of the experiment, 36 SD rats were randomly grouped according to their body weights. The animals were fasted with water available for 12 to 14 h one day before the administration and were fed 4 h after the administration.
(§1) Before and after the administration, 0.15 ml of blood was taken from the orbit of the animals under isoflurane anesthesia and placed in an EDTAK2 centrifuge tube. The blood was centrifuged at 5000 rpm and 4° C. for 10 min to collect plasma. The blood collection time points for the intravenous administration group and intragastric administration group were: 0, 5 min, 15 min, 30 min, 1 h, 2 h, 4 h, 6 h, 8 h and 24 h. Before analysis and detection, all samples were stored at −80° C., and a quantitative analysis of samples was performed using LC-MS/MS.

[2] = Pharmacokinetic test in mice; assay type: in vivo, C57 mice; settings: for AUC(0-t) / clearance / Vd: male, C57, mouse, plasma; for Vd: read-out: Vdss
Procedure: 1.1 Experimental animals: Male C57 mice, 20-25 g, 6 mice/compound. Purchased from Chengdu Ddossy Experimental Animals Co., Ltd.
1.2 Experimental design: On the day of the experiment, 24 C57 mice were randomly grouped according to their body weight. The animals were fasted with water available for 12 to 14 h one day before the administration and were fed 4 h after the administration.
as §1, with “0.06 mL” for “0.15 ml”, “intravenous” for “intravenous administration”, “0 min,” for “0,”, “7” for “6 h, 8”

SMILES: Cc1nc(N2CC3C(C2)C3C2CN(C3CC(C)(C(=O)O)C3)CCO2)nc(NC(C)c2ccc(Cl)cc2Cl)c1Cl (single isomer, unassigned) [Compound 78 isomer 3]
- IC50 (CCR4): < 100 nM
- F ([1]; i.g. 10 mg/kg): >98%
- AUC ([1]; iv, i.v. 2.5 mg/kg): 4560 ± 638 ng·h/mL
- clearance ([1]; iv, i.v. 2.5 mg/kg): 9.22 ± 1.2 mL/min/kg
- Vd ([1]; iv, i.v. 2.5 mg/kg): 2.07 ± 0.28 L/kg
- AUC ([1]; po, i.g. 10 mg/kg): 28400 ± 7070 ng·h/mL

SMILES: Cc1nc(N2CC(F)(C3CN(C4CC(C)(C(=O)O)C4)CCO3)C2)nc(N[C@H](C)c2ccc(Cl)cc2Cl)c1Cl (single isomer, unassigned) [Compound 64 isomer 3]
- F ([2]; i.g. 10 mg/kg): 118 ± 4.5%
- AUC(0-t) ([2]; iv, i.v. 2.5 mg/kg): 4490 ± 361 ng·h/mL
- clearance ([2]; iv, i.v. 2.5 mg/kg): 9.26 ± 0.73 mL/min/kg
- Vd ([2]; iv, i.v. 2.5 mg/kg): 1.94 ± 0.053 L/kg
- AUC(0-t) ([2]; po, i.g. 10 mg/kg): 21200 ± 815 ng·h/mL
- IC50 (CCR4): < 100 nM
- F ([1]; i.g. 10 mg/kg): 108 ± 21%
- AUC ([1]; iv, i.v. 2.5 mg/kg): 6020 ± 1390 ng·h/mL
- clearance ([1]; iv, i.v. 2.5 mg/kg): 6.85 ± 1.2 mL/min/kg
- Vd ([1]; iv, i.v. 2.5 mg/kg): 1.38 ± 0.25 L/kg
- AUC ([1]; po, i.g. 10 mg/kg): 26100 ± 5150 ng·h/mL

SMILES: Cc1nc(N2CCC(C3CN(CCC(=O)O)CCO3)CC2)nc(NC(C)c2ccc(Cl)cc2Cl)c1Cl (single isomer, unassigned) [Compound 76 isomer 2]
- F ([2]; i.g. 10 mg/kg): 123 ± 14%
- AUC(0-t) ([2]; iv, i.v. 2.5 mg/kg): 1790 ± 125 ng·h/mL
- clearance ([2]; iv, i.v. 2.5 mg/kg): 23.1 ± 1.7 mL/min/kg
- Vd ([2]; iv, i.v. 2.5 mg/kg): 1.44 ± 0.12 L/kg
- AUC(0-t) ([2]; po, i.g. 10 mg/kg): 8840 ± 1010 ng·h/mL
- IC50 (CCR4): < 100 nM

SMILES: C[C@@H](Nc1cc(N2CC([C@H]3CCCN([C@H]4C[C@](C)(C(=O)O)C4)C3)C2)nc2ccnn12)c1ccc(Cl)cc1Cl [Compound 14]
- IC50 (CCR4): < 100 nM

SMILES: C[C@@H](Nc1cc(N2CC([C@H]3CCCN([C@H]4C[C@](C)(C(=O)O)C4)C3)C2)nc2nccn12)c1ccc(Cl)cc1Cl [Compound 55]
- IC50 (CCR4): < 100 nM

SMILES: C[C@@H](Nc1nc(N2CC([C@H]3CCCN([C@H]4C[C@](C)(C(=O)O)C4)C3)C2)c2sccc2n1)c1ccc(Cl)cc1Cl [Compound 33]
- IC50 (CCR4): < 100 nM

SMILES: C[C@@H](Nc1cc(N2CC([C@H]3CCCN([C@H]4C[C@](C)(C(=O)O)C4)C3)C2)nc(C(F)(F)F)n1)c1ccc(Cl)cc1Cl [Compound 52]
- IC50 (CCR4): 100 to 500 nM

SMILES: C[C@@H](Nc1cc(N2CC([C@H]3CCCN([C@H]4C[C@](C)(C(=O)O)C4)C3)C2)n2nccc2n1)c1ccc(Cl)cc1Cl [Compound 25]
- IC50 (CCR4): < 100 nM

SMILES: Cc1nc(N2CC(N3CCCC(N4CC(C)(C(=O)O)C4)C3)C2)nc(NC(C)c2ccc(Cl)cc2Cl)c1Cl (single isomer, unassigned) [Compound 16 isomer 1]
- IC50 (CCR4): 100 to 500 nM

SMILES: CC(Nc1nc(N2CC(F)(C3CN(C4CC(C)(C(=O)O)C4)CCO3)C2)nc(C(F)F)c1Cl)c1ccc(Cl)cc1Cl (single isomer, unassigned) [Compound 66 isomer 3]
- IC50 (CCR4): 100 to 500 nM

SMILES: Cc1nc(C#CC2CCCN(C3CC(C)(C(=O)O)C3)C2)nc(NC(C)c2ccc(Cl)cc2Cl)c1Cl (single isomer, unassigned) [Compound 18 isomer 2]
- IC50 (CCR4): < 100 nM

SMILES: Cc1nc(N[C@H](C)c2ccc(Cl)cc2Cl)cc(N2CC([C@H]3CCCN([C@H]4C[C@](C)(C(=O)O)C4)C3)C2)n1 [Compound 26]
- IC50 (CCR4): < 100 nM

SMILES: C#Cc1cc(Cl)ccc1C(C)Nc1nc(N2CC(C3CCCN(C4CC(C)(C(=O)O)C4)C3)C2)nc(C)c1Cl (single isomer, unassigned) [Compound 7 isomer 2]
- IC50 (CCR4): 100 to 500 nM

SMILES: Cc1nc(N2CC(F)(C3CN(C4CC(C(=O)O)C4)CCO3)C2)nc(N[C@H](C)c2ccc(Cl)cc2Cl)c1Cl (single isomer, unassigned) [Compound 84 isomer 1]
- IC50 (CCR4): 100 to 500 nM

SMILES: CC(Nc1nc(N2CC(C3CN(C4CC(C)(C(=O)O)C4)CCC34CC4)C2)nc(C(F)F)c1Cl)c1ccc(Cl)cc1Cl (single isomer, unassigned) [Compound 74 isomer 3]
- IC50 (CCR4): 100 to 500 nM

SMILES: Cc1nc(N2CC(C3CCCN(C4CC(C)(C(=O)O)C4)C3)C2)nc(NC(C)c2cc(Cl)sc2Cl)c1Cl (single isomer, unassigned) [Compound 10 isomer 1]
- IC50 (CCR4): 100 to 500 nM

SMILES: C#Cc1ccc(C(C)Nc2nc(N3CC([C@H]4CCCN(CCO)C4)C3)nc(C)c2Cl)c(Cl)c1 (stereo partly shown) [Compound 38]
- IC50 (CCR4): 100 to 500 nM

SMILES: Cc1nc(N2CC(C3CCCC(N4CC(C)(C(=O)O)C4)C3)C2)nc(NC(C)c2ccc(Cl)cc2Cl)c1Cl (single isomer, unassigned) [Compound 8 isomer 1]
- IC50 (CCR4): 100 to 500 nM

SMILES: C[C@@H](Nc1cc(N2CC(C3CN(C4CC(C)(C(=O)O)C4)CCO3)C2)ncn1)c1ccc(Cl)cc1Cl (single isomer, unassigned) [Compound 29 isomer 1]
- IC50 (CCR4): 100 to 500 nM

SMILES: C#Cc1c(C)nc(N2CC([C@H]3CCCN([C@H]4C[C@](C)(C(=O)O)C4)C3)C2)nc1N[C@H](C)c1ccc(Cl)cc1Cl [Compound 4]
- IC50 (CCR4): < 100 nM

SMILES: CC(Nc1nc(N2CC(C3CN(C4CC(C)(C(=O)O)C4)CCO3)C2)ncc1Br)c1ccc(Cl)cc1Cl (single isomer, unassigned) [Compound 37 isomer 2]
- IC50 (CCR4): 100 to 500 nM

SMILES: C[C@@H](Nc1nc2c(c(N3CC([C@H]4CCCN([C@H]5C[C@](C)(C(=O)O)C5)C4)C3)n1)CCC2)c1ccc(Cl)cc1Cl [Compound 34]
- IC50 (CCR4): 100 to 500 nM

SMILES: Cc1nc(N2CC(F)(C3CN(CCC(=O)O)CCO3)C2)nc(N[C@H](C)c2ccc(Cl)cc2Cl)c1Cl (stereo partly shown) [Compound 88]
- IC50 (CCR4): < 100 nM

SMILES: Cc1cc(N2CC([C@H]3CCCN([C@H]4C[C@](C)(C(=O)O)C4)C3)C2)nc(N[C@H](C)c2ccc(Cl)cc2Cl)n1 [Compound 12]
- IC50 (CCR4): < 100 nM

SMILES: C[C@@H](Nc1nc(N2CC([C@H]3CCCN([C@H]4C[C@](C)(C(=O)O)C4)C3)C2)c2occc2n1)c1ccc(Cl)cc1Cl [Compound 51]
- IC50 (CCR4): < 100 nM

SMILES: Cc1nc(N2CC([C@H]3CCCN([C@H]4C[C@](C)(C(=O)O)C4)C3)C2)nc2c1CCCN2C(C)c1ccc(Cl)cc1Cl (stereo partly shown) [Compound 36]
- IC50 (CCR4): 100 to 500 nM

SMILES: CC(Nc1nc(N2CC(C3CN(C4CC(C)(C(=O)O)C4)CCO3)C2)ncc1Cl)c1ccc(Cl)cc1Cl (single isomer, unassigned) [Compound 42 isomer 1]
- IC50 (CCR4): < 100 nM

SMILES: CC(Nc1nc(N2CC(F)(C3CN(C4CC(C)(C(=O)O)C4)CCO3)C2)ncc1Cl)c1ccc(Cl)cc1Cl (single isomer, unassigned) [Compound 89 isomer 1]
- IC50 (CCR4): < 100 nM

SMILES: C[C@@H](Nc1nc(N2CC([C@H]3CCCN([C@H]4C[C@](C)(C(=O)O)C4)C3)C2)c2c(ccn2C)n1)c1ccc(Cl)cc1Cl [Compound 44]
- IC50 (CCR4): 100 to 500 nM

SMILES: C[C@@H](Nc1nc(N2CC([C@H]3CCCN([C@H]4C[C@](C)(C(=O)O)C4)C3)C2)c2ccn(C)c2n1)c1ccc(Cl)cc1Cl [Compound 43]
- IC50 (CCR4): 100 to 500 nM

SMILES: Cc1nc(N2CC(N3CCCC(N4CC(C)(C(=O)O)C4)C3)C2)nc(NC(C)c2ccc(Cl)cc2Cl)c1Cl (single isomer, unassigned) [Compound 16 isomer 2]
- IC50 (CCR4): < 100 nM

SMILES: C[C@@H](Nc1cc(N2CCC(C3CN(C4CC(C)(C(=O)O)C4)CCO3)CC2)nc2ccnn12)c1ccc(Cl)cc1Cl (single isomer, unassigned) [Compound 111]
- IC50 (CCR4): < 100 nM
